Measured values from US20080300288A1, “Alkenyldiarylmethanes, Fused Analogs And Syntheses Thereof” (PURDUE RESEARCH FOUNDATION, priority 2005, published 2008).

Columns and labels:
[1] = Cytotoxicity in mock-infected MT-4 cells; type: cell-based; conditions: human, uninfected (mock-infected) MT-4 cells
[2] = target: T1, recombinant HIV-1 RT enzyme (p66/51 dimer) (Human immunodeficiency virus type 1 group M subtype B, UniProt P04585); test: RT inhibition assay, incorporation of [32P]GTP into poly(rC)/oligo(dG); type: biochemical
T1 construct: recombinant HIV-1 RT enzyme (p66/51 dimer)
Procedure: RT Inhibition Assay. Analysis of the effects of the compounds on recombinant HIV-1 RT enzyme (p66/51 dimer) was performed as previously described. See, Buckheit, R. W. J.; Fliakas-Boltz, V.; Decker, W. D.; Robertson, J. L.; Stup, T. L.; Pyle, C. […] Antiviral Res. 1995, 26, 117-132, the disclosure of which is incorporated herein by reference. Briefly, inhibition of purified recombinant reverse transcriptase enzyme was measured by the incorporation of [^32P]GTP into poly(rC)/oligo(dG) (rCdG) homopolymer template primers.

[3] = Cytotoxicity in mock-infected CEM-SS cells; type: cell-based; conditions: human, uninfected (mock-infected) CEM-SS cells
Procedure: In Vitro Antiviral Assays. Evaluation of the antiviral activity of compounds against HIV-1RF infection in CEM-SS cells was performed using the MTS cytoprotection assay as previously described. See, Rice, W. G.; Bader, J. P. Discovery and in Vitro Development of AIDS Antiviral Drugs as Biopharmaceuticals. Adv. Pharmacol. (San Diego) 1995, 6, 389-438, the disclosure of which is incorporated herein by reference. […] See, Pauwels, R.; Balzarini, J.; Baba, M.; Snoeck, R.; Schols, […].; De […]. Rapid and Automated Tetrazolium-based Colorimetric Assay for Detection of Anti-HIV Compounds. J. Virol. Methods 1988, 20, 309-321, the disclosure of which is incorporated herein by reference.

HIV-1 strain IIIB = test: MTT assay, HIV-1 strain IIIB in MT-4 cells; type: cell-based; conditions: Human immunodeficiency virus 1, MT4; HIV-1IIIB in MT-4 cells; read-out: EC50 HIV-1IIIB (inhibition of cytopathicity)
[4] = In vitro hydrolytic stability study in rat plasma; type: in vitro ADME; conditions: for Rat Plasma tp1/2 (min ± SD): rat plasma in vitro, half-life; for hydrolysis in rat plasma: 37° C.
Procedure: NMR spectra were obtained at 300 MHz (^1H) and 75 MHz (^13C) in CDCl3 using CHCl3 as internal standard. Flash chromatography was performed with 230-400 mesh silica gel. […] Melting points are uncorrected. Unless otherwise stated, chemicals and solvents were of reagent grade and used as obtained from commercial sources without further purification. Tetrahydrofuran (THF) was freshly distilled from sodium/benzophenone ketyl radical prior to use. Dichloromethane was freshly distilled from calcium hydride prior to use. Lyophilized rat plasma (lot 052K7609) was obtained from Sigma Chemical Co., St. Louis, Mo. All yields given refer to isolated yields.
In vitro Hydrolytic Stability Study in Rat Plasma. […] See, Silvestri, M. A.; Nagarajan, M.; De Clercq, E.; Pannecouque, C.; Cushman, M. Design, Synthesis, Anti-HIV Activities, and Metabolic Stabilities of Alkenyldiarylmethane (ADAM) Non-nucleoside Reverse Transcriptase Inhibitors. J. Med. Chem. 2004, 47, 3149-3162, the disclosure of which is incorporated herein by reference.

HIV-2 strain (ROD) = test: MTT assay, HIV-2 strain (ROD) in MT-4 cells; type: cell-based; conditions: Human immunodeficiency virus 2, MT4; HIV-2ROD in MT-4 cells; read-out: EC50 HIV-2-ROD (inhibition of cytopathicity)
HIV-1RF = test: MTS cytoprotection assay, HIV-1RF infection in CEM-SS cells; type: cell-based; conditions: Human immunodeficiency virus 1; HIV-1RF in CEM-SS cells; read-out: EC50 HIV-1RF (inhibition of cytopathicity)
Procedure: In Vitro Antiviral Assays. Evaluation of the antiviral activity of compounds against HIV-1RF infection in CEM-SS cells was performed using the MTS cytoprotection assay as previously described. See, Rice, W. G.; Bader, J. P. Discovery and in Vitro Development of AIDS Antiviral Drugs as Biopharmaceuticals. Adv. Pharmacol. (San Diego) 1995, 6, 389-438, the disclosure of which is incorporated herein by reference. […] See, Pauwels, R.; Balzarini, J.; Baba, M.; Snoeck, R.; Schols, D.; Herdewijn, P.; Desmyter, J.; De Clercq, E. Rapid and Automated Tetrazolium-based Colorimetric Assay for Detection of Anti-HIV Compounds. J. Virol. Methods 1988, 20, 309-321, the disclosure of which is incorporated herein by reference.

COC(=O)c1cc(/C(=C\CCN2CCOC2=O)c2ccc(OC)c(OC)c2)cc(C)c1OC [Compound 3]
CC50 [1]: 1.05 µM
IC50 [2]: 1 µM
CC50 [3]: 0.49 µM
EC50 (HIV-1 strain IIIB): > 1.05 µM
Rat Plasma tp1/2 (min ± SD) [4]: 5.76 ± 0.68 min
EC50 (HIV-2 strain (ROD)): > 1.05 µM
EC50 (HIV-1RF): > 100 µM

COC(=O)c1cc(/C(=C/CCN2CCOC2=O)c2ccc(OC)c(OC)c2)cc(C)c1OC [Compound 4, (Z)-5-[1-(3,4-Dimethoxyphenyl)-4-(2-oxo-oxazolidin-3-yl)-but-1-enyl]-2-methoxy-3-methyl-benzoic Acid Methyl Ester]
CC50 [1]: 83.1 µM
IC50 [2]: 0.9 µM
CC50 [3]: 0.6 µM
EC50 (HIV-1 strain IIIB): > 33.8 µM
Rat Plasma tp1/2 (min ± SD) [4]: 0.79 ± 0.10 min
EC50 (HIV-2 strain (ROD)): > 35.4 µM
EC50 (HIV-1RF): > 100 µM

COC(=O)c1cc(/C(=C\CCN2CCOC2=O)c2cc(F)cc(C(F)(F)F)c2)cc(C)c1OC [Compound 7, (E)-5-[1-(3-Fluoro-5-trifluoromethylphenyl)-4-(2-oxo-oxazolidin-3-yl)-but-1-enyl]-2-methoxy-3-methylbenzoic Acid Methyl Ester]
IC50 [2]: 15.7 µM
CC50 [3]: 15 µM
EC50 (HIV-1RF): 8.3 µM

COc1ccc(/C(=C\CCN2CCOC2=O)c2cc(F)cc(C(F)(F)F)c2)cc1OC [Compound 8, (E)-3-[4-(3-Fluoro-5-trifluoromethylphenyl)-4-(3,4-dimethoxyphenyl)-but-3-enyl]-oxazolidin-2-one]
IC50 [2]: 97.8 µM
CC50 [3]: 14.5 µM
hydrolysis in rat plasma ([4]; after three days): had not been hydrolyzed
EC50 (HIV-1RF): > 100 µM

COc1ccc(/C(=C\CCN2CCOC2=O)c2cc(F)ccc2C(F)(F)F)cc1OC [Compound 9, (E)-3-[4-(5-Fluoro-2-trifluoromethylphenyl)-4-(3,4-dimethoxyphenyl)-but-3-enyl]-oxazolidin-2-one]
IC50 [2]: > 100 µM
CC50 [3]: 26.7 µM
hydrolysis in rat plasma ([4]; after three days): had not been hydrolyzed
EC50 (HIV-1RF): > 100 µM

COC(=O)CCC/C=C(/c1cc(Cl)c(OC)c(C(=O)OC)c1)c1cc(Cl)ccc1OC [Compound 10, (Z)-3-Chloro-5-[1-(5-chloro-2-methoxyphenyl)-5-methoxycarbonyl-pent-1-enyl]-2-methoxybenzoic Acid Methyl Ester]
IC50 [2]: > 100 µM
CC50 [3]: 15.5 µM
Rat Plasma tp1/2 (min ± SD) [4]: 0.77 ± 0.08 min
EC50 (HIV-1RF): > 100 µM

COC(=O)CCC/C=C(/c1cc(C)c(OC)c(C(=O)OC)c1)c1cc(Cl)ccc1OC [Compound 11, (Z)-5-[1-(5-Chloro-2-methoxyphenyl)-5-methoxycarbonyl-pent-1-enyl]-2-methoxy-3-methylbenzoic Acid Methyl Ester]
IC50 [2]: > 100 µM
CC50 [3]: 8 µM
Rat Plasma tp1/2 (min ± SD) [4]: 0.98 ± 0.02 min
EC50 (HIV-1RF): > 100 µM

COC(=O)CCC/C=C(\c1cc(F)cc(C(F)(F)F)c1)c1cc(C)c(OC)c(C(=O)OC)c1 [Compound 12, (Z)-5-[1-(3-Fluoro-5-trifluoromethylphenyl)-5-methoxycarbonyl-pent-1-enyl]-2-methoxy-3-methylbenzoic Acid Methyl Ester]
CC50 [1]: 5.7 µM
IC50 [2]: > 100 µM
CC50 [3]: > 5 µM
EC50 (HIV-1 strain IIIB): > 5.51 µM
EC50 (HIV-2 strain (ROD)): > 5.89 µM
EC50 (HIV-1RF): > 5 µM

COC(=O)CCC/C=C(\c1cc(F)cc(C(F)(F)F)c1)c1cc(Cl)c(OC)c(C(=O)OC)c1 [Compound 13, (E)-3-Chloro-5-[1-(3-fluoro-5-trifluoromethylphenyl)-5-methoxycarbonyl-pent-1-enyl]-2-methoxy-benzoic Acid Methyl Ester]
IC50 [2]: > 100 µM
CC50 [3]: 16.1 µM
EC50 (HIV-1RF): > 100 µM

COC(=O)CCC/C=C(\c1cc(C)c(OC)c(C(=O)OC)c1)c1cc(Cl)ccc1OC [Compound 14, (E)-5-[1-(5-Chloro-2-methoxyphenyl)-5-methoxycarbonyl-pent-1-enyl]-2-methoxy-3-methylbenzoic Acid Methyl Ester]
IC50 [2]: > 100 µM
CC50 [3]: 8.3 µM
Rat Plasma tp1/2 (min ± SD) [4]: 0.49 ± 0.02 min
EC50 (HIV-1RF): > 100 µM

COC(=O)CCC/C=C(/c1cc(F)cc(C(F)(F)F)c1)c1cc(C)c(OC)c(C(=O)OC)c1 [Compound 15, (E)-5-[1-(3-Fluoro-5-trifluoromethylphenyl)-5-methoxycarbonyl-pent-1-enyl]-2-methoxy-3-methylbenzoic Acid Methyl Ester]
CC50 [1]: 113 µM
IC50 [2]: 55.3 µM
CC50 [3]: 9.3 µM
EC50 (HIV-1 strain IIIB): 2.54 µM
Rat Plasma tp1/2 (min ± SD) [4]: 4.35 ± 0.41 min
EC50 (HIV-2 strain (ROD)): 10.6 µM
EC50 (HIV-1RF): 7.3 µM

COC(=O)CCC/C=C(\c1cccc(C#N)c1)c1cc(Cl)c(OC)c(C(=O)OC)c1 [Compound 17, (E)-3-Chloro-5-[1-(3-cyanophenyl)-5-methoxycarbonyl-pent-1-enyl]-2-methoxybenzoic Acid Methyl Ester]
CC50 [1]: 213 µM
IC50 [2]: 0.75 µM
CC50 [3]: 20.2 µM
EC50 (HIV-1 strain IIIB): 8.55 µM
Rat Plasma tp1/2 (min ± SD) [4]: 0.44 ± 0.05 min
EC50 (HIV-2 strain (ROD)): > 223 µM
EC50 (HIV-1RF): 7.1 µM

COC(=O)CCC/C=C(\c1cccc(C#N)c1)c1cc(Cl)ccc1OC [Compound 18, (E)-6-(5-Chloro-2-methoxyphenyl)-6-(3-cyanophenyl)-hex-5-enoic Acid Methyl Ester]
CC50 [1]: ≥ 45.1 µM
IC50 [2]: 0.78 µM
CC50 [3]: 16.3 µM
EC50 (HIV-1 strain IIIB): 9.11 µM
Rat Plasma tp1/2 (min ± SD) [4]: 0.42 ± 0.02 min
EC50 (HIV-2 strain (ROD)): > 67.6 µM
EC50 (HIV-1RF): 7 µM

COC(=O)CCC/C=C(\c1cc(F)cc(C(F)(F)F)c1)c1cc(C)c2onc(OC)c2c1 [Compound 19, (Z)-6-(3-Fluoro-5-trifluoromethylphenyl)-6-(3-methoxy-7-methylbenzo[d]isoxazol-5-yl)-hex-5-enoic Acid Methyl Ester]
IC50 [2]: 0.9 µM

COC(=O)CCC/C=C(/c1cc(C)c2on(C)c(=O)c2c1)c1cc(Cl)ccc1OC [Compound 21, (Z)-6-(5-Chloro-2-methoxyphenyl)-6-(2,3-dihydro-2,7-dimethyl-3-oxo-benzo[d]isoxazol-5-yl)-hex-5-enoic Acid Methyl Ester]
IC50 [2]: 8.2 µM
CC50 [3]: 13 µM
Rat Plasma tp1/2 (min ± SD) [4]: 0.48 ± 0.06 min
EC50 (HIV-1RF): > 100 µM

COC(=O)CCC/C=C(\c1cc(F)cc(C(F)(F)F)c1)c1cc(C)c2on(C)c(=O)c2c1 [Compound 22, (Z)-6-(2,3-Dihydro-2,7-dimethyl-3-oxo-benzo[d]isoxazol-5-yl)-6-(3-fluoro-5-trifluoromethylphenyl)-hex-5-enoic Acid Methyl Ester]
CC50 [1]: 39.8 µM
IC50 [2]: > 100 µM
CC50 [3]: 16.8 µM
EC50 (HIV-1 strain IIIB): > 35.7 µM
EC50 (HIV-2 strain (ROD)): > 43.2 µM
EC50 (HIV-1RF): > 100 µM

COC(=O)CCC/C=C(/c1cc(C)c2onc(OC)c2c1)c1cc(C)c2oc(=O)n(C)c2c1 [Compound 67, (Z)-6-(3,7-Dimethyl-2-oxo-2,3-dihydro-benzoxazol-5-yl)-6-(3-methoxy-7-methyl-benzo[d]isoxazol-5-yl)-hex-5-enoic Acid Methyl Ester]
IC50 [2]: 0.25 µM

COc1noc2c(C)cc(/C(=C\CCN3CCOC3=O)c3cc(C)c4oc(=O)n(C)c4c3)cc12 [Compound 68, (E)-5-[1-(3-Methoxy-7-methylbenzo[d]isoxazol-5-yl)-4-(2-oxoxazolidin-3-yl)-but-1-enyl]-3,7-dimethyl-3H-benzoxazol-2-one]
IC50 [2]: 3.6 µM
hydrolysis in rat plasma ([4]; after 1 day): had not been hydrolyzed
